Numbered stars: 1 amine (or outer) side, 2 acyl side, 3 side chain; on linkers, the order of the positions; unused ones are H or OH. Side chains are listed from the residue outwards. Peptide text beside a SMILES is read from it. * marks the point of attachment. C18 diacid = O=C(O)CCCCCCCCCCCCCCCCC(=O)*; γGlu = O=C(O)[C@H](CCC(=O)[*:2])N[*:1]; AEEA = NCCOCCOCC(=O)O
Columns and labels:
glucagon receptor = biological target: T1, glucagon receptor (Homo sapiens, UniProt P47871); assay: Assay (I) Glucagon activity (cAMP biosensor, FLIPR); type: cell-based
T1 construct: expressed in transfected cells

[1] = Assay (X) Chemical stability assessment by RP-UPLC; type: physicochemical; conditions: pH 8.15, 14 days at 37° C. vs 5° C., 333 μM

T1 sequence (P47871 26-477): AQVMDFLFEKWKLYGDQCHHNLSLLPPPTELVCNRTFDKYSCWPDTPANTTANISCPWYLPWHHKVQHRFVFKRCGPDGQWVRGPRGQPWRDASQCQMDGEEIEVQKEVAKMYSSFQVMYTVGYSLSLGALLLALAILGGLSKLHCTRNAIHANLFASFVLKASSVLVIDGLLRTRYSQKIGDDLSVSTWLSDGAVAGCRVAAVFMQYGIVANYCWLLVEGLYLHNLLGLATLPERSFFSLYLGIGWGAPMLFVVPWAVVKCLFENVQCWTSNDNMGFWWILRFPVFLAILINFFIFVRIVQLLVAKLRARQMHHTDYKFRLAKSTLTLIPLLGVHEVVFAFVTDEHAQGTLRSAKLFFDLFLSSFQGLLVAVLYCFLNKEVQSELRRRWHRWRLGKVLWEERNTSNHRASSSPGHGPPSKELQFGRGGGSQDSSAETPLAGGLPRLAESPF

Compound	EC50 (glucagon receptor) [nM]	Chemical stability [Purity loss/14 days 37 C.] [1] [%]
CC(C)C[C@H](NC(=O)[C@H](CC(=O)O)NC(=O)[C@H](CC(C)C)NC(=O)[C@H](Cc1ccc(O)cc1)NC(=O)[C@H](CCCNC(=N)N)NC(=O)[C@H](CO)NC(=O)[C@H](Cc1ccc(O)cc1)NC(=O)[C@H](CC(=O)O)NC(=O)[C@H](CO)NC(=O)[C@@H](NC(=O)[C@H](Cc1ccccc1)NC(=O)[C@@H](NC(=O)CNC(=O)[C@H](CCC(N)=O)NC(=O)[C@H](CO)NC(=O)[C@@H](N)Cc1c[nH]cn1)[C@@H](C)O)[C@@H](C)O)C(=O)N[C@@H](CCCNC(=N)N)C(=O)N[C@@H](CCCNC(=N)N)C(=O)N[C@@H](C)C(=O)N[C@@H](CCC(N)=O)C(=O)N[C@@H](CC(=O)O)C(=O)N[C@@H](Cc1ccccc1)C(=O)N[C@H](C(=O)N[C@@H](CCCCNC(=O)CC[C@H](NC(=O)CC[C@H](NC(=O)CC[C@H](NC(=O)COCCOCCNC(=O)COCCOCCNC(=O)CC[C@H](NC(=O)CCCCCCCCCCCCCCCCC(=O)O)C(=O)O)C(=O)O)C(=O)O)C(=O)O)C(=O)N[C@@H](Cc1c[nH]c2ccccc12)C(=O)N[C@@H](CC(C)C)C(=O)N[C@@H](CC(C)C)C(=O)N[C@@H](CO)C(=O)N[C@H](C(=O)O)[C@@H](C)O)C(C)C [Example 45, N^ε24-[(4S)-4-carboxy-4-[[(4S)-4-carboxy-4-[[(4S)-4-carboxy-4-[[2-[2-[2-[[2-[2-[2-[[(4S)-4-carboxy-4-(17-carboxyheptadecanoylamino)butanoyl]amino]ethoxy]ethoxy]acetyl]amino]ethoxy]ethoxy]acetyl]amino]butanoyl]amino]butanoyl]amino]butanoyl]-[Arg12,Leu16,Lys24,Leu27,Ser28]-Glucagon] (H-HSQGTFTSDYSRYLDLRRAQDFVK([γGlu-γGlu-γGlu-AEEA-AEEA-γGlu-C18 diacid])WLLST-OH)	0.243	3.3
CC(C)C[C@H](NC(=O)[C@H](Cc1ccc(O)cc1)NC(=O)[C@H](CCCCN)NC(=O)[C@H](CO)NC(=O)[C@H](Cc1ccc(O)cc1)NC(=O)[C@H](CC(=O)O)NC(=O)[C@H](CO)NC(=O)[C@@H](NC(=O)[C@H](Cc1ccccc1)NC(=O)[C@@H](NC(=O)CNC(=O)[C@H](CCC(N)=O)NC(=O)[C@H](CO)NC(=O)[C@@H](N)Cc1c[nH]cn1)[C@@H](C)O)[C@@H](C)O)C(=O)N[C@@H](CCC(=O)O)C(=O)N[C@@H](CO)C(=O)N[C@@H](CCCNC(=N)N)C(=O)N[C@@H](CCCNC(=N)N)C(=O)N[C@@H](C)C(=O)N[C@@H](CCC(N)=O)C(=O)N[C@@H](CCC(=O)O)C(=O)N[C@@H](Cc1ccccc1)C(=O)N[C@H](C(=O)N[C@@H](CCCCNC(=O)CC[C@H](NC(=O)CC[C@H](NC(=O)CC[C@H](NC(=O)CC[C@H](NC(=O)CCCCCCCCCCCCCCCCC(=O)O)C(=O)O)C(=O)O)C(=O)O)C(=O)O)C(=O)N[C@@H](Cc1c[nH]c2ccccc12)C(=O)N[C@@H](CC(C)C)C(=O)N[C@@H](CC(C)C)C(=O)N[C@@H](CO)C(=O)N[C@H](C(=O)O)[C@@H](C)O)C(C)C [Example 49, N^ε24-[(4S)-4-carboxy-4-[[(4S)-4-carboxy-4-[[(4S)-4-carboxy-4-[[(4S)-4-carboxy-4-(17-carboxyheptadecanoylamino)butanoyl]amino]butanoyl]amino]butanoyl]amino]butanoyl]-[Glu15,Glu21,Lys24,Leu27,Ser28]-Glucagon] (H-HSQGTFTSDYSKYLESRRAQEFVK([γGlu-γGlu-γGlu-γGlu-C18 diacid])WLLST-OH)	0.169	6.8
CC(C)C[C@H](NC(=O)[C@H](Cc1ccc(O)cc1)NC(=O)[C@H](CCCCN)NC(=O)[C@H](CO)NC(=O)[C@@H](NC(=O)[C@H](CC(=O)O)NC(=O)[C@H](CO)NC(=O)[C@@H](NC(=O)[C@H](Cc1ccccc1)NC(=O)[C@@H](NC(=O)CNC(=O)[C@H](CCC(N)=O)NC(=O)[C@H](CO)NC(=O)[C@@H](N)Cc1c[nH]cn1)[C@@H](C)O)[C@@H](C)O)C(C)C)C(=O)N[C@@H](CCC(=O)O)C(=O)N[C@@H](CO)C(=O)N[C@@H](CCCNC(=N)N)C(=O)N[C@@H](CCCNC(=N)N)C(=O)N[C@@H](C)C(=O)N[C@@H](CCC(N)=O)C(=O)N[C@@H](CCC(=O)O)C(=O)N[C@@H](Cc1ccccc1)C(=O)N[C@H](C(=O)N[C@@H](CCCCNC(=O)CC[C@H](NC(=O)CC[C@H](NC(=O)CC[C@H](NC(=O)CC[C@H](NC(=O)CCCCCCCCCCCCCCCCC(=O)O)C(=O)O)C(=O)O)C(=O)O)C(=O)O)C(=O)N[C@@H](Cc1c[nH]c2ccccc12)C(=O)N[C@@H](CC(C)C)C(=O)N[C@@H](CC(C)C)C(=O)N[C@@H](CO)C(=O)N[C@H](C(=O)O)[C@@H](C)O)C(C)C [Example 50, N^ε24-[(4S)-4-carboxy-4-[[(4S)-4-carboxy-4-[[(4S)-4-carboxy-4-[[(4S)-4-carboxy-4-(17-carboxyheptadecanoylamino)butanoyl]amino]butanoyl]amino]butanoyl]amino]butanoy]-[Val10,Glu15,Glu21,Lys24,Leu27,Ser28]-Glucagon] (H-HSQGTFTSDVSKYLESRRAQEFVK([γGlu-γGlu-γGlu-γGlu-C18 diacid])WLLST-OH)	0.118	4.8
CC(C)C[C@H](NC(=O)[C@H](Cc1ccc(O)cc1)NC(=O)[C@H](CCCNC(=N)N)NC(=O)[C@H](CO)NC(=O)[C@H](Cc1ccc(O)cc1)NC(=O)[C@H](CC(=O)O)NC(=O)[C@H](CO)NC(=O)[C@@H](NC(=O)[C@H](Cc1ccccc1)NC(=O)[C@@H](NC(=O)CNC(=O)[C@H](CCC(N)=O)NC(=O)[C@H](CO)NC(=O)[C@@H](N)Cc1c[nH]cn1)[C@@H](C)O)[C@@H](C)O)C(=O)N[C@@H](CCC(=O)O)C(=O)N[C@@H](CO)C(=O)N[C@@H](CCCNC(=N)N)C(=O)N[C@@H](CCCNC(=N)N)C(=O)N[C@@H](C)C(=O)N[C@@H](CCC(N)=O)C(=O)N[C@@H](CCC(=O)O)C(=O)N[C@@H](Cc1ccccc1)C(=O)N[C@H](C(=O)N[C@@H](CCCCNC(=O)CC[C@H](NC(=O)CC[C@H](NC(=O)CC[C@H](NC(=O)CC[C@H](NC(=O)CCCCCCCCCCCCCCCCC(=O)O)C(=O)O)C(=O)O)C(=O)O)C(=O)O)C(=O)N[C@@H](Cc1c[nH]c2ccccc12)C(=O)N[C@@H](CC(C)C)C(=O)N[C@@H](CC(C)C)C(=O)N[C@@H](CO)C(=O)N[C@H](C(=O)O)[C@@H](C)O)C(C)C [Example 51, N^ε24-[(4S)-4-carboxy-4-[[(4S)-4-carboxy-4-[[(4S)-4-carboxy-4-[[(4S)-4-carboxy-4-(17-carboxyheptadecanoylamino)butanoyl]amino]butanoyl]amino]butanoyl]amino]butanoyl]-[Arg12,Glu15,Glu21,Lys24,Leu27,Ser28]-Glucagon] (H-HSQGTFTSDYSRYLESRRAQEFVK([γGlu-γGlu-γGlu-γGlu-C18 diacid])WLLST-OH)	0.148	5.7
CC(C)C[C@H](NC(=O)[C@H](Cc1ccc(O)cc1)NC(=O)[C@H](CCCNC(=N)N)NC(=O)[C@H](CO)NC(=O)[C@H](Cc1ccc(O)cc1)NC(=O)[C@H](CC(=O)O)NC(=O)[C@H](CO)NC(=O)[C@@H](NC(=O)[C@H](Cc1ccccc1)NC(=O)[C@@H](NC(=O)CNC(=O)[C@H](CCC(N)=O)NC(=O)[C@H](CO)NC(=O)[C@@H](N)Cc1c[nH]cn1)[C@@H](C)O)[C@@H](C)O)C(=O)N[C@@H](CCC(=O)O)C(=O)N[C@@H](CO)C(=O)N[C@@H](CCCNC(=N)N)C(=O)N[C@@H](CCCNC(=N)N)C(=O)N[C@@H](C)C(=O)N[C@@H](CCC(N)=O)C(=O)N[C@@H](CCC(=O)O)C(=O)N[C@@H](Cc1ccccc1)C(=O)N[C@H](C(=O)N[C@@H](CCCCNC(=O)CC[C@H](NC(=O)CC[C@H](NC(=O)COCCOCCNC(=O)COCCOCCNC(=O)CC[C@H](NC(=O)CCCCCCCCCCCCCCCCC(=O)O)C(=O)O)C(=O)O)C(=O)O)C(=O)N[C@@H](Cc1c[nH]c2ccccc12)C(=O)N[C@@H](CC(C)C)C(=O)N[C@@H](CC(C)C)C(=O)N[C@@H](CO)C(=O)N[C@H](C(=O)O)[C@@H](C)O)C(C)C [Example 52, N^ε24-[(4S)-4-carboxy-4-[[(4S)-4-carboxy-4-[[2-[2-[2-[[2-[2-[2-[[(4S)-4-carboxy-4-(17-carboxyheptadecanoylamino)butanoyl]amino]ethoxy]ethoxy]acetyl]amino]ethoxy]ethoxy]acetyl]amino]butanoyl]amino]butanoyl]-[Arg12,Glu15,Glu21,Lys24,Leu27,Ser28]-Glucagon] (H-HSQGTFTSDYSRYLESRRAQEFVK([γGlu-γGlu-AEEA-AEEA-γGlu-C18 diacid])WLLST-OH)	0.289	6.3
CC[C@H](C)[C@H](NC(=O)[C@H](CC(=O)O)NC(=O)[C@H](CC(C)C)NC(=O)[C@H](Cc1ccc(O)cc1)NC(=O)[C@H](CCCNC(=N)N)NC(=O)[C@H](CO)NC(=O)[C@H](Cc1ccc(O)cc1)NC(=O)[C@H](CC(=O)O)NC(=O)[C@H](CO)NC(=O)[C@@H](NC(=O)[C@H](Cc1ccccc1)NC(=O)[C@@H](NC(=O)CNC(=O)[C@H](CCC(N)=O)NC(=O)[C@H](CO)NC(=O)[C@@H](N)Cc1c[nH]cn1)[C@@H](C)O)[C@@H](C)O)C(=O)N[C@@H](CCCNC(=N)N)C(=O)N[C@@H](CCCNC(=N)N)C(=O)N[C@@H](C)C(=O)N[C@@H](CCC(N)=O)C(=O)N[C@@H](CCC(=O)O)C(=O)N[C@@H](Cc1ccccc1)C(=O)N[C@H](C(=O)N[C@@H](CCCCNC(=O)CC[C@H](NC(=O)CC[C@H](NC(=O)COCCOCCNC(=O)COCCOCCNC(=O)CC[C@H](NC(=O)CCCCCCCCCCCCCCCCC(=O)O)C(=O)O)C(=O)O)C(=O)O)C(=O)N[C@@H](Cc1c[nH]c2ccccc12)C(=O)N[C@@H](CC(C)C)C(=O)N[C@@H](CCC(=O)O)C(=O)N[C@@H](CO)C(=O)N[C@H](C(=O)O)[C@@H](C)O)C(C)C [Example 53, N^ε24-[(4S)-4-carboxy-4-[[(4S)-4-carboxy-4-[[2-[2-[2-[[2-[2-[2-[[(4S)-4-carboxy-4-(17-carboxyheptadecanoylamino)butanoyl]amino]ethoxy]ethoxy]acetyl]amino]ethoxy]ethoxy]acetyl]amino]butanoyl]amino]butanoyl]-[Arg12,Ile16,Glu21,Lys24,Glu27,Ser28]-Glucagon] (H-HSQGTFTSDYSRYLDIRRAQEFVK([γGlu-γGlu-AEEA-AEEA-γGlu-C18 diacid])WLEST-OH)	0.099	2.5

— patent US9486506B2 (Novo Nordisk A/S, priority 2011, dated 2016)
